Test systems include MCF7 breast; MDA-MB-231 breast; HS 578T breast; MDA-N; MDA-MB-435; DU-145 prostate.
Common to all, as to assay: NCI anticancer screen, dose series, 48 h

Several values for one entry are separate records, joined by “and”; a condition that tells them apart may be missing. Equal values may be shown once.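 Tested at 5 concentrations; 48 h exposure; 96-well plates; endpoints linearly interpolated, else capped at highest concentration. Abbreviation: GI50, concentration required for 50% inhibition of growth. TGI denotes the concentration required for complete inhibition of growth.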

`CC[CH2][Pb]([CH2]CC)([CH2]CC)[NH]S(=O)(=O)c1ccc(C)cc1`: the GI50 in the experiment on MCF7 breast was 65.1 nM; in the experiment on MDA-MB-231 breast, 66.1 nM; in the experiment with HS 578T breast it was 63.8 nM; in the experiment with MDA-N, 29.4 nM; in the experiment with MDA-MB-435 it was 19.4 nM; in the experiment on DU-145 prostate it was 0.0853 µM. In addition, the TGI is 0.418 µM in the experiment on MCF7 breast; 0.27 µM with MDA-MB-231 breast; 0.354 µM in the experiment on HS 578T breast; 0.14 µM with MDA-N; 0.0766 µM in the experiment on MDA-MB-435; 0.444 µM in the experiment with DU-145 prostate.
For the molecule `Cc1cn2c(/C=N/N/C(N)=N\N)c(-c3ccc(Cl)c([N+](=O)[O-])c3)nc2s1`, the GI50 in the experiment with MCF7 breast was 1560 nM; in the experiment on MDA-MB-231 breast it was 791 nM; in the experiment on HS 578T breast, 1100 nM; in the experiment on MDA-MB-435, 1050 nM; in the experiment with DU-145 prostate, 1.12 µM. Further, the TGI was over 50 µM in the experiment on MCF7 breast; 1.87 µM in the experiment with MDA-MB-231 breast; 2.39 µM with HS 578T breast; 2.22 µM with MDA-MB-435; 3.65 µM in the experiment on DU-145 prostate.
For the molecule `Cn1cc(-c2ccc(CNc3cc(-c4cnc5cc(OCCCN6CCCC6)ccn45)ncn3)cc2)cn1`, the GI50 is 2450 nM in the experiment on MCF7 breast; 1910 nM with MDA-MB-231 breast; 3520 nM in the experiment with HS 578T breast; 1710 nM in the experiment on MDA-MB-435; 15.1 µM in the experiment with DU-145 prostate. Also, the TGI came out at 10.4 µM in the experiment with MCF7 breast; 3.56 µM in the experiment with MDA-MB-231 breast; 26.2 µM with HS 578T breast; 3.19 µM with MDA-MB-435; 31.5 µM with DU-145 prostate.
On to `CN(C)c1ccc(C(N)=O)cn1`, for which the TGI in the experiment on MCF7 breast, in the experiment on MDA-MB-231 breast, with HS 578T breast, in the experiment on MDA-N, in the experiment on MDA-MB-435 and in the experiment on DU-145 prostate was over 100 µM each time.
`O=C(Nc1ccc2c(c1)oc(=O)c1ccccc12)C(Cl)Cl`: the TGI with MCF7 breast, with MDA-MB-231 breast, with HS 578T breast, in the experiment with MDA-N, in the experiment on MDA-MB-435 and in the experiment on DU-145 prostate was over 100 µM each time.
`O=c1oc2ccc(Cl)cc2c(=O)n1-c1ccc(I)cc1F`: the GI50 is 258 nM in the experiment on MCF7 breast; 250 nM in the experiment with MDA-MB-231 breast; 161 nM in the experiment with HS 578T breast; 271 nM in the experiment with MDA-MB-435; 0.436 µM in the experiment on DU-145 prostate. The TGI is over 23.9 µM with MCF7 breast; 3.57 µM in the experiment on MDA-MB-231 breast; 1.11 µM in the experiment with HS 578T breast; 3.86 µM in the experiment on MDA-MB-435; over 49.5 µM in the experiment with DU-145 prostate.
On to `CCCCCc1c(C)[nH]c(/C=C2\N=C(c3ccc[nH]3)C=C2Oc2ccc(Cl)cc2)c1C`, for which the GI50 is 57.8 nM and 23.8 nM in the experiment on MCF7 breast; 26.9 nM and < 10 nM in the experiment with MDA-MB-231 breast; 126 nM and 27.1 nM in the experiment with HS 578T breast; 58.7 nM and 35.2 nM in the experiment on MDA-MB-435; 0.0837 µM and 0.0201 µM with DU-145 prostate. For the same molecule, the TGI is 2.15 µM and 3.57 µM in the experiment on MCF7 breast; 0.0798 µM and 0.157 µM in the experiment with MDA-MB-231 breast; 0.65 µM and 0.4 µM in the experiment with HS 578T breast; 0.334 µM and 0.385 µM in the experiment on MDA-MB-435; 3.04 µM and 2.91 µM in the experiment on DU-145 prostate.
For the molecule `Nc1nc(OCc2ccccc2)nc2[nH]ncc12`, the GI50 was 16100 nM in the experiment on MCF7 breast; 11400 nM with MDA-MB-231 breast; 17500 nM in the experiment with HS 578T breast; 16200 nM in the experiment with MDA-MB-435; 18.4 µM in the experiment on DU-145 prostate. The TGI was 33.1 µM with MCF7 breast; 25.6 µM in the experiment with MDA-MB-231 breast; 38.5 µM with HS 578T breast; 30.5 µM with MDA-MB-435; over 100 µM with DU-145 prostate.
With `Clc1ccc2nc(Oc3ccccc3)cnc2c1`, the GI50 in the experiment on MCF7 breast was over 100000 nM; in the experiment with MDA-MB-231 breast it was over 100000 nM; in the experiment with HS 578T breast it was over 100000 nM; with MDA-MB-435 it was over 100000 nM; in the experiment on DU-145 prostate it was over 100 µM. For the same molecule, the TGI with MCF7 breast, with MDA-MB-231 breast, with HS 578T breast, with MDA-MB-435 and with DU-145 prostate was over 100 µM in each case.
On to `NCc1ccc(-n2c(-c3nonc3N)nc3cnccc32)cc1`, for which the GI50 with MCF7 breast was 5190 nM; with MDA-MB-231 breast, over 25000 nM; in the experiment on HS 578T breast, 674 nM; in the experiment on MDA-MB-435 it was 20100 nM; with DU-145 prostate it was 11.4 µM. Moreover, the TGI with MCF7 breast, with MDA-MB-231 breast, with HS 578T breast, in the experiment on MDA-MB-435 and in the experiment with DU-145 prostate was over 25 µM throughout.
For `Oc1cc(Cl)ccc1Oc1ccc(Cl)cc1Cl`, the GI50 with MCF7 breast is 3140 nM; in the experiment with MDA-MB-231 breast it was 2160 nM; in the experiment with HS 578T breast, 4540 nM; in the experiment with MDA-MB-435, 2860 nM; in the experiment with DU-145 prostate, 4.61 µM. For the same molecule, the TGI is 10.6 µM with MCF7 breast; 4.95 µM in the experiment on MDA-MB-231 breast; 42.6 µM in the experiment on HS 578T breast; 9.24 µM in the experiment on MDA-MB-435; 16.3 µM in the experiment with DU-145 prostate.
As to `C[C@H](CSC(=O)c1ccccc1)C(=O)N1c2ccccc2C[C@H]1C(=O)O`, the TGI with MCF7 breast, in the experiment with MDA-MB-231 breast, in the experiment on HS 578T breast, in the experiment with MDA-N and with DU-145 prostate was over 100 µM each time.
Turning to `CCc1c[nH]c2ncnc(N3CC[C@@](N)(CNC(=O)c4ccc(F)cc4F)C3)c12`, the GI50 was 26600 nM with MCF7 breast; 35600 nM in the experiment with MDA-MB-231 breast; 18200 nM with HS 578T breast; 33500 nM with MDA-MB-435; 42.2 µM in the experiment on DU-145 prostate. Moreover, the TGI in the experiment on MCF7 breast was over 100 µM; in the experiment with MDA-MB-231 breast, over 100 µM; with HS 578T breast it was 75.2 µM; in the experiment on MDA-MB-435, over 100 µM; in the experiment on DU-145 prostate it was over 100 µM.
`COc1cc2cc(Oc3ccc(NC(=O)c4ccc(Cl)c(C(F)(F)F)c4)cc3)c(C)nc2cc1OC`: the GI50 is 8950 nM with MCF7 breast; 11400 nM with MDA-MB-231 breast; 16600 nM in the experiment with HS 578T breast; 14700 nM in the experiment with MDA-MB-435; 26.2 µM in the experiment with DU-145 prostate. Moreover, the TGI in the experiment on MCF7 breast is over 100 µM; with MDA-MB-231 breast, 27.5 µM; in the experiment with HS 578T breast it was 64 µM; in the experiment on MDA-MB-435, over 100 µM; in the experiment with DU-145 prostate, over 100 µM.

The values are drawn from PubChem BioAssay (NCI).
